Patent publication US8003668B2, “Amino-substituted 8-N-benzimidazoles and methods for their use in blood sugar disorders” (Sanofi-Aventis, priority 2005, dated 2011)

Molecular target: T1, DPP-IV from porcine kidneys (Sus scrofa, UniProt P22411)
T1 construct: DPP-IV from porcine kidneys (Sigma, Munich); purchased Sigma, Munich; host or cells: porcine kidney (tissue-derived enzyme)
Experiment: Measurement of the DPP-IV activity (fluorimetric, H-Ala-Pro-AFC substrate)
Format: biochemical
Conditions: inhibitor at 30 μm; H-Ala-Pro-AFC 15 μm; DPP-IV 1 mU/ml; Tris/HCl pH 7.4; room temperature
Procedure: The efficacy of the compounds was tested as follows: • Measurement of the DPP-IV Activity: • Material: • DPP-IV from porcine kidneys (Sigma, Munich) • H-Ala-Pro-AFC (Bachem, Weil am Rhein) • Test conditions: • DPP-IV (1 mU/ml, end concentration) • H-Ala-Pro-AFC (15 μm end concentration) in Tris/HCl (40 mM, pH 7.4), total volume 0.2 ml
The reaction was performed at room temperature for different periods (typically 10 minutes) and stopped at the end of the reaction by adding 20 μl of ZnCl2 (1 M). The conversion of H-Ala-Pro-AFC was determined fluorimetrically by measuring the emission at 535 nm on excitation at 405 nm. In the case of addition of inhibitors, the buffer volume added was adjusted such that a total volume of the test mixture of 200 μl was maintained.
% inhibition at a fixed concentration was calculated as follows: (1−enzyme activityinhibited reaction/enzyme activityuninhibited reaction)×100
IC50 values for inhibitors were determined by varying the inhibitor concentrations at the given substrate concentration of 15 μM. Ki and Km values were determined by corresponding variation of substrate and inhibitor concentration as described (Dixon, M. and Webb, E.C.(1979) Enzymes, third edition, pp. 47-206, Academic Press). […]

T1 sequence (P22411 whole entry): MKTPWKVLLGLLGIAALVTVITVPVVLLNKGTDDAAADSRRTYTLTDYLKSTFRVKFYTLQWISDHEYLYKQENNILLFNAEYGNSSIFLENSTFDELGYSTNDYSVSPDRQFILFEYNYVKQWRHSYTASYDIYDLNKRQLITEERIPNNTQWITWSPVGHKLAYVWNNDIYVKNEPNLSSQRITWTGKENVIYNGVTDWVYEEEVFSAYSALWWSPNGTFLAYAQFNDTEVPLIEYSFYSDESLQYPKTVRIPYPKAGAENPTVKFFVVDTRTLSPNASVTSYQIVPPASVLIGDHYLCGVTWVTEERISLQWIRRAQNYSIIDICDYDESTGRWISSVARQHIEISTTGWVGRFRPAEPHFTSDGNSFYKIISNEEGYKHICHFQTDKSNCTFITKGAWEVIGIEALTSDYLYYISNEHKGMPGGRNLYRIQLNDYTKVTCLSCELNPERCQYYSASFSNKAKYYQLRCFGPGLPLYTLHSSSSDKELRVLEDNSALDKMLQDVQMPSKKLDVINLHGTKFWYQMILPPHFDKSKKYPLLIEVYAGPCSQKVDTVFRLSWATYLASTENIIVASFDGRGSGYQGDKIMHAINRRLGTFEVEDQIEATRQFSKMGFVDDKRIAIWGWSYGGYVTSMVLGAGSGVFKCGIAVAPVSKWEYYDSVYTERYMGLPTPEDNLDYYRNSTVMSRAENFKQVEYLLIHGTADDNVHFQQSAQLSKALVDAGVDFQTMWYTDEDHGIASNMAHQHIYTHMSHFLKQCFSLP

CC(C)=CCn1c(N2CCC[C@@H](N)C2)nc2ccc(NS(=O)(=O)c3ccccc3)cc21.O=C(O)C(F)(F)F [Example 1, R-N-[2-(3-R-Aminopiperidin-1-yl)-1-(3-methylbut-2-enyl)-1H-benzimidazol-6-yl]-benzenesulfonamide trifluoroacetic acid salt]
% inhibition at 30 μm: 56%
